# Assay results taken from patent US5795885A, “Method of inhibiting profileration of cells by administering an aminosterol compound” (priority 1995, dated 1998).
# Legend:
# P. aerug = test: antibiotic activity (MIC); type: cell-based
# [1] = system: PHA-stimulated human lymphocytes; test: inhibition of mitogen (PHA)-stimulated growth of human T-cells; type: cell-based; settings: Homo sapiens, Lymphocyte; 10 μg/ml; read-out: inhibition of PHA-stimulated human lymphocytes (% control)
# Source text: Results are tabulated below.
# [2] = system: Human ovarian carcinoma SKOV3; test: growth inhibition in vitro (Baker et al.); type: cell-based
# Procedure: As set forth in Table 7 below, all malignant tumors evaluated in tissue culture, endothelial cells and vascular smooth muscle cells were sensitive to inhibition. Thus, compound 1436 has application in the control of growth factor dependent proliferation of many types of tissue.
# Using the assay described above, the anticancer effects of compound 1437 against several cancer lines was assessed.
# fasting blood glucose = fasting blood glucose in mice; type: in vivo, Male CD-1 mice; settings: intravenous
# Procedure: To study the effect of steroid administrator or the NHE responsible for secretion of insulin, several of the aminosterols from shark liver were administered to fasting mice. Male CD-1 mice were assigned to one of four treatment groups. Whole blood glucose was tested using glucometer (Lifescan Glucometer II and One Touch test strips). Statistical analysis was via one-way analysis of variance (ANOVA) followed by subsequent Bonferonni's t-test.
# NHE1β = settings: cited from earlier work
# [3] = system: L1210 lymphoblastic leukemia; test: mouse model of L1210 leukemia; type: in vivo, C57B mice; settings: by day 28
# [4] = system: chick embryo vitelline capillaries; test: chick embryo vitelline capillary regression assay; type: in vivo; parameters: key to vitelline capillary regression: +: Vascular reactivity; 0: No vascular reactivity; +/-: Equivocal reactivity; settings: for vitelline capillary regression: 60 minutes
# Procedure: Using the chick embryo vitelline capillaries assay, compounds were tested for their ability to induce capillary regression. Each compound was applied in 0.1 ml of 15% Ficol 400 and PBS onto the embryo, and vascular regression was assessed after 60 minutes.
# The 3-day chick embryo consists of an embryonic disc from which numerous vessels emerge and return, forming a "figure 8"-shaped structure--the embryo in the center with vascular loops extending outward over both poles. […] Following a lag period of around 15 minutes, the constriction of continuity between capillary and secondary vessels, generally on the "venous" side, was observed. Continued pulsatile blood flow progressed, resulting in a "swelling" of the blind tube, followed by a pinching off of the remaining connection and formation of an enclosed vascular sac resembling a "blood island." This process progressed until only the largest vessels remained intact.
# mouse IV PK study, HPLC = settings: in vivo
# Procedure: To assess clearance, a mouse IV PK study was performed for compound 319 and squalamine. The compound was administered i.v. and blood samples were taken every 10 minutes. The concentration of the administered steroid was determined by HPLC analysis.
# [5] = system: stage 59-60 Xenopus tadpoles
# B16 melanoma = B16 melanoma growth in C57B mice; type: in vivo, mouse; settings: subcutaneous administration (FIG. 6)
# Procedure: The growth of B16 melanoma in C57B mice is dependent upon neovascularization.
# Using the growth of B16 melanoma cells in C57B mice, a recognized model for the evaluation of inhibitors of angiogenesis on the growth of cancers, the effects of subcutaneous, intraperitoneal and oral administration of squalamine were evaluated.
# Based on the idea that tumor growth involves both the clonal expansion of a malignant cell along with the development of a supporting vascular supply, a combination of compound 1436 with squalamine was tested to determine whether it would achieve a synergistic effect on solid tumor growth. This concept was evaluated in the B16 melanoma model.
# Animals were implanted with B16 melanoma followed by treatment with compound 1436 or 1256 administered in a combined schedule or separately. […] Thus, a combination of these two compounds achieves a therapeutic benefit in tumors dependent on neovascularization that may prevent metastatic spread.
# human melanoma = human melanoma growth time course and cell death (Baker et al.); type: cell-based
Structure (SMILES),MIC (P. aerug) [µg/mL],also measured
CC(C)CCCC(C)[C@H]1CCC2C3C(CC[C@@]21C)[C@@]1(C)CC[C@H](N)C[C@@H]1C[C@H]3O (some centres unmarked),> 256,
CC(C)CCCC(C)[C@H]1CCC2C3C(CC[C@@]21C)[C@@]1(C)CC[C@@H](NCCCNCCCCN)C[C@@H]1C[C@H]3O (some centres unmarked),64,
CC(C)CCCC(C)[C@H]1CCC2C3C(CC[C@@]21C)[C@@]1(C)CC[C@H](NCCCNCCCCN)C[C@@H]1C[C@H]3O (some centres unmarked),64,
COC(=O)CCC(C)[C@H]1CCC2C3C(CC[C@@]21C)[C@@]1(C)CC[C@H](NCCN)C[C@H]1C[C@H]3O (some centres unmarked),128,
COC(=O)CCC(C)[C@H]1CCC2C3C(CC[C@@]21C)[C@@]1(C)CC[C@H](NCCCNCCCCNCCCN)C[C@H]1C[C@H]3O (some centres unmarked),64,
CC(CCC(=O)O)[C@H]1CCC2C3C(CC[C@@]21C)[C@@]1(C)CC[C@@H](NCCCNCCCCNCCCN)C[C@H]1C[C@H]3O (some centres unmarked),8,
CC(CCC(=O)O)[C@H]1CCC2C3C(CC[C@@]21C)[C@@]1(C)CC[C@@H](NCCN)C[C@H]1C[C@H]3O (some centres unmarked),64,
CC(CCC(=O)O)[C@H]1CCC2C3C(CC[C@@]21C)[C@@]1(C)CC[C@H](NCCN)C[C@H]1C[C@H]3O (some centres unmarked),256,
COC(=O)CCC(C)[C@H]1CCC2C3CC[C@@H]4C[C@H](NCCN)CC[C@]4(C)C3C[C@H](O)[C@@]21C (some centres unmarked),16 to 32,
CC(CCC(=O)O)[C@H]1CCC2C3CC[C@@H]4C[C@H](NCCN)CC[C@]4(C)C3C[C@H](O)[C@@]21C (some centres unmarked),128,
COC(=O)CCC(C)[C@H]1CCC2C3C[C@@H](O)[C@H]4C[C@@H](NCCN)CC[C@]4(C)C3CC[C@@]21C (some centres unmarked),64,
CC(CCC(=O)O)[C@H]1CCC2C3C[C@@H](O)[C@H]4C[C@@H](NCCN)CC[C@]4(C)C3CC[C@@]21C (some centres unmarked),128,
COC(=O)CCC(C)[C@H]1CCC2C3CC[C@@H]4C[C@H](NCCCNCCCCNCCCN)CC[C@]4(C)C3C[C@H](O)[C@@]21C (some centres unmarked),8,
CC(CCC(=O)O)[C@H]1CCC2C3CC[C@@H]4C[C@H](NCCCNCCCCNCCCN)CC[C@]4(C)C3C[C@H](O)[C@@]21C (some centres unmarked),4,
COC(=O)CCC(C)[C@H]1CCC2C3CC[C@H]4C[C@@H](NCCCNCCCCNCCCN)CC[C@]4(C)C3CC[C@@]21C (some centres unmarked),64,
COC(=O)CCC(C)[C@H]1CCC2C3C[C@@H](O)[C@H]4C[C@H](NCCCNCCCCNCCCN)CC[C@]4(C)C3CC[C@@]21C (some centres unmarked),128,
COC(=O)CCC(C)[C@H]1CCC2C3C[C@@H](O)[C@H]4C[C@@H](NCCCNCCCCNCCCN)CC[C@]4(C)C3CC[C@@]21C (some centres unmarked),32,
CC(CCC(=O)O)[C@H]1CCC2C3C[C@@H](O)[C@H]4C[C@@H](NCCCNCCCCNCCCN)CC[C@]4(C)C3CC[C@@]21C (some centres unmarked),8,
"CC(C)C(CO)(CC[C@@H](C)[C@H]1CC[C@H]2[C@@H]3[C@H](O)C[C@H]4C[C@@H](NCCCNCCCCN)CC[C@]4(C)[C@H]3CC[C@]12C)OS(=O)(=O)O (single isomer, unassigned) [Compound 1437]",,inhibition at 10 µg/mL [1]: 10%; anticancer activity [2]: found to exhibit anticancer activity; hyperglycemia (fasting blood glucose): caused hyperglycemia in mice
"N=C(N)NC(=O)c1nc(Cl)c(N)nc1N [Amiloride, amiloride]",,inhibition of NHE1β (NHE1β): inhibited by high concentrations
"N.N.[Cl][Pt][Cl] [Cisplatin, cisplatin, reference compound]",,anemia [3]: profound anemia
C[C@H](CCC(=O)O)[C@H]1CC[C@H]2[C@@H]3CC[C@H]4C[C@@H](NCCCNCCCCN)CC[C@]4(C)[C@H]3CC[C@]12C [Compound 319],,"vitelline capillary regression ([4]; 0.001 μg applied): +/-; vitelline capillary regression ([4]; 0.01 μg applied): +; vitelline capillary regression ([4]; 0.1 μg applied): +; vitelline capillary regression ([4]; 1 μg applied): +; vitelline capillary regression ([4]; 10 μg applied): +; activity in vitelline capillary regression assay (in words) ([4]; in vivo): especially active; pharmacokinetic clearance compared with squalamine (mouse IV PK study, HPLC): more rapid pharmacokinetic clearance than squalamine; tadpole tail capillary occlusion ([5]; squalamine at 10 μg/ml): common vascular occlusive effect; control of B16 melanoma (B16 melanoma): control of B16 in C57B mice to an extent almost comparable to squalamine"
CC(C)CCC[C@@H](C)[C@H]1CC[C@H]2[C@@H]3CC[C@H]4C[C@@H](NCCCNCCCCNCCCN)CC[C@]4(C)[C@H]3CC[C@]12C [Compound 353],,"vitelline capillary regression ([4]; 1 μg applied): +/-; effect on chick embryo vitelline capillaries (in words) ([4]; in vivo): no effect on the chick embryo capillary bed; tadpole response similar to compound 1436 ([5]; tadpole assay): produce effects like those produced by compound 1436; apoptotic cell death (human melanoma): apoptotic cell death has been induced; effect on growth of melanoma (time course) (human melanoma; FIG. 17A): most pronounced over 48 hours, with less of an effect noted within the first 12 hours of incubation"
COC(=O)CCC(C)[C@H]1CCC2C3CC[C@H]4C[C@H](NCCCNCCCCNCCCN)CC[C@]4(C)C3CC[C@@]21C (some centres unmarked) [drawing 74],64,
